What was measured:
KRas [1] = target: T1, KRas (Homo sapiens, UniProt P01116, G12C); assay: KRas degradation in SW1573 cells by Western blot, normalized to GAPDH (data of Table 14); type: cell-based; conditions: SW1573 cells
Procedure: Cell Lines, Antibodies, and Reagents. NCI-H2030 (CRL-5914) and SW1573 (CRL-2170) cells were purchased from ATCC. Both cell lines are homozygous for the G12C mutation in KRas. NCI-H2030 cells were cultured in RPMI-1640 medium containing 1% penicillin-streptomycin and 10% fetal bovine serum (FBS). SW1573 cells were cultured in DMEM containing 1% penicillin-streptomycin and 10% FBS. The KRas detection antibody (Cat. No. LS-C175665) was purchased from LifeSpan Biosciences and was used at a dilution of 1:2000. GAPDH was detected using an antibody purchased from Cell Signaling Technology (Cat. No. 5174) and was diluted 1:3000. Secondary anti-mouse and anti-rabbit detection antibodies were purchased from Cell Signaling Technology (Cat. Nos. 7076 and 7074, respectively).
Compound Treatment and Western Blotting of the Data of Table 14. Either NCI-H2030 or SW1573 cells were plated in 12-well plates and allowed to adhere overnight at 37° C. in an incubator containing 5% CO2. The following day, the medium was replaced with the appropriate medium lacking FBS to induce starvation. Cells were returned to the incubator for an additional 24 hours following media exchange. […] Cells were treated with VHL-based compounds for 24 hours and all other compounds for 72 hours. Following treatment, cells were lysed in RIPA buffer (Thermo Fisher Cat. No. 89900) containing phosphatase (Thermo Fisher Cat. No. 1861277) and protease (Thermo Fisher Cat. No. 78429) inhibitor cocktails. Lysates were cleared at 13,000 rpm for 15 minutes and supernatants were assayed for total protein concentration using the Pierce BCA assay system (Thermo Fisher Cat. No. 23225). For each sample, 10 μg total protein was resolved on a 12% Bis-Tris gel and then transferred to a nitrocellulose membrane. After blocking in 3% BSA in TBST (Tris-buffered Saline with 0.1% Tween-20) for 1 hour at room temperature, membranes were probed with the primary antibody (LS Bio Cat. No. LS-C175665) overnight at 4° C. After incubation with the secondary antibody, the following day membranes were visualized using the SuperSignal™ West Femto substrate (Thermo Fisher Cat. No. 34095). The KRas signal in each lane was normalized to GAPDH and percent degradation was either estimated as less than 25% by visual inspection (C in Table 13) or quantitated relative to the DMSO control lane using BIO-RAD Image Lab 5.2.1, and all data was plotted using GraphPad PRISM 6.07.
DC50 is the half-maximal degradation concentration—i.e., the concentration at which 50% degradation is observed. DMax is the maximum degradation efficacy is achieved—i.e., the maximal degradation observed) degradation data.

KRas [2] = target: T1, KRas; assay: KRas degradation in NCI-H2030 cells by Western blot, normalized to GAPDH (data of Table 14); type: cell-based; set-up: host or cells: NCI-H2030; conditions: for Percent Degradation at Indicated Concentration (μM): H2030
Method in brief: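 KRas/GAPDH band ratio vs DMSO lane gives % degradation; values under 25% were estimated visually, the rest quantitated. Cells are G12C homozygous, serum-free for 24 h, then dosed at 0.3/1/3 μM (0.1% DMSO). VHL-based compounds 24 h, others 72 h.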

Percent Degradation at Indicated Concentration (μM) (KRas [1]; 0.03 μM) | Percent Degradation at Indicated Concentration (μM) (KRas [1]; 0.1 μM) | Percent Degradation at Indicated Concentration (μM) (KRas [1]; 0.3 μM) | Percent Degradation at Indicated Concentration (μM) (KRas [1]; 1 μM) | Percent Degradation at Indicated Concentration (μM) (KRas [1]; 3 μM) | Percent Degradation at Indicated Concentration (μM) (KRas [2]; 0.3 μM) | Percent Degradation at Indicated Concentration (μM) (KRas [2]; 1 μM) | Percent Degradation at Indicated Concentration (μM) (KRas [2]; 3 μM) | Dmax (KRas [2]; NCI-H2030) [%] | SMILES
C (Percent Degradation: C ≤ 35) | C (Percent Degradation: C ≤ 35) | C (Percent Degradation: C ≤ 35) | – | – | – | – | – | – | C=CC(=O)N1CCN(c2nc(O[C@H](C)CN3CCC(OCCOCCOc4cc([C@H](C(=O)N5C[C@H](O)C[C@H]5C(=O)N[C@@H](C)c5ccc(-c6scnc6C)cc5)C(C)C)on4)CC3)nc3c(F)c(-c4cc(O)cc5ccccc45)c(Cl)cc23)CC1 [compound 527, (2S,4R)-1-((2R)-2-(3-(2-(2-((1-((2R)-2-((4-(4-acryloylpiperazin-1-yl)-6-chloro-8-fluoro-7-(3-hydroxynaphthalen-1-yl)quinazolin-2-yl)oxy)propyl)piperidin-4-yl)oxy)ethoxy)ethoxy)isoxazol-5-yl)-3-methylbutanoyl)-4-hydroxy-N-((S)-1-(4-(4-methylthiazol-5-yl)phenyl)ethyl)pyrrolidine-2-carboxamide]
– | – | C (Percent Degradation: C ≤ 35) | C (Percent Degradation: C ≤ 35) | C (Percent Degradation: C ≤ 35) | – | – | – | – | Cc1ncsc1-c1ccc([C@H](C)NC(=O)[C@@H]2C[C@@H](O)CN2C(=O)[C@@H](NC(=O)COCCOC2CCN(C[C@@H](C)Oc3nc(N4CCN(C(=O)C(O)O)CC4)c4cc(Cl)c(-c5cc(O)cc6ccccc56)c(F)c4n3)CC2)C(C)(C)C)cc1 [compound 244, (2S,4R)-1-((2S)-2-(2-(2-((1-((2R)-2-((6-chloro-4-(4-(2,2-dihydroxyacetyl)piperazin-1-yl)-8-fluoro-7-(3-hydroxynaphthalen-1-yl)quinazolin-2-yl)oxy)propyl)piperidin-4-yl)oxy)ethoxy)acetamido)-3,3-dimethylbutanoyl)-4-hydroxy-N-((S)-1-(4-(4-methylthiazol-5-yl)phenyl)ethyl)pyrrolidine-2-carboxamide]
– | C (Percent Degradation: C ≤ 35) | C (Percent Degradation: C ≤ 35) | C (Percent Degradation: C ≤ 35) | – | – | – | – | – | C=CC(=O)N1CCN(c2nc(OC3CCN(CCOCCN4CCN(CC(=O)N[C@H](C(=O)N5C[C@H](O)C[C@H]5C(=O)N[C@@H](C)c5ccc(-c6scnc6C)cc5)C(C)(C)C)CC4)CC3)nc3c(F)c(-c4cc(O)cc5ccccc45)c(Cl)cc23)CC1 [compound 475, (2S,4R)-1-((2S)-2-(2-(4-(2-(2-(4-((4-(4-acryloylpiperazin-1-yl)-6-chloro-8-fluoro-7-(3-hydroxynaphthalen-1-yl)quinazolin-2-yl)oxy)piperidin-1-yl)ethoxy)ethyl)piperazin-1-yl)acetamido)-3,3-dimethylbutanoyl)-4-hydroxy-N-((S)-1-(4-(4-methylthiazol-5-yl)phenyl)ethyl)pyrrolidine-2-carboxamide]
– | – | – | – | – | C (Percent Degradation: C ≤ 35) | C (Percent Degradation: C ≤ 35) | C (Percent Degradation: C ≤ 35) | ≤ 35 | C=CC(=O)N1CCN(c2nc(NCCC(=O)N(C)CCOCCOc3cc(-c4scnc4C)ccc3CNC(=O)[C@@H]3C[C@@H](O)CN3C(=O)[C@@H](c3cc(C)no3)C(C)C)nc3c(F)c(-c4c(O)cccc4F)c(Cl)cc23)CC1 (atropisomer, axis not shown) [compound 128, (25,4R)-N-(2-(2-(2-(3-(((S)-4-(4-acryloylpiperazin-1-yl)-6-chloro-8-fluoro-7-(2-fluoro-6-hydroxyphenyl)quinazolin-2-yl)amino)-N-methylpropanamido)ethoxy)ethoxy)-4-(4-methylthiazol-5-yl)benzyl)-4-hydroxy-1-((R)-3-methyl-2-(3-methylisoxazol-5-yl)butanoyl)pyrrolidine-2-carboxamide]

Source: US12552783B2, “Modulators of proteolysis and associated methods of use” (Arvinas Operations, Inc., priority 2018, dated 2026)
